Measurements: patent US20210068395A1, “METHODS OF APPLYING ONE OR MORE CERTAIN HETEROARYL-1,2,4-TRIAZOLE AND HETEROARYL-TETRAZOLE COMPOUNDS TO CONTROL DAMAGE ON PLANTS, PROPAGATION MATERIAL THEREOF, AND PLANT DERIVED PRODUCTS” (SYNGENTA CROP PROTECTION AG, priority 2018, published 2021)

Assays:
Format in all cases: in vivo
[1] = test system: Spodoptera littoralis (Egyptian Cotton Leaf Worm); assay: Spodoptera littoralis systemic activity (lettuce); details: 144 h, test rate 12.5 ppm, root uptake in lettuce, 6 days after infestation, read-out: control in at least one of the three categories (mortality or growth inhibition or anti-feeding)
Text: Test compounds were applied by pipette prepared from 10,000 ppm DMSO stock solutions into 24-well plates and mixed with agar. Lettuce seeds were placed onto the agar and the multi well plate was closed by another plate which contained also agar. After 7 days the compound was absorbed by the roots and the lettuce grew into the lid plate. The lettuce leaves were then cut off into the lid plate. Spodoptera eggs were pipetted through a plastic stencil onto a humid gel blotting paper and the lid plate was closed with it. The samples were assessed for mortality, anti-feeding and growth inhibition 6 days after infestation.

[2] = test system: Plutella xylostella (Diamond Back Moth); assay: Plutella xylostella feeding/contact activity, 96-well artificial diet; details: 216 h, application rate 500 ppm, 9 days after infestation
Experimental: 1, 2, 3, 4, 17, 19, 23, 26, 39, 41, 42, 54, 55, 56 Plutella xylostella (Diamond Back Moth):Feeding/Contact Activity 96-well microtiter plates containing artificial diet were treated with aqueous test solutions, prepared from 10,000 ppm DMSO stock solutions, by a liquid handling robot. After drying, eggs (˜30 per well) were infested onto a netted lid which was suspended above the diet. The eggs hatch and L1 larvae move down to the diet. The samples were assessed for mortality 9 days after infestation.

[3] = test system: Euschistus heros (Neotropical Brown Stink Bug); assay: Euschistus heros feeding/contact activity; details: 120 h, application rate 200 ppm, N2 nymphs on soybean leaves, 5 days after infestation, read-out: control in at least one of the two categories (mortality or growth inhibition)
Experimental: Soybean leaves on agar in 24-well microtiter plates were sprayed with aqueous test solutions prepared from 10,000 ppm DMSO stock solutions. After drying the leaves were infested with N2 nymphs. The samples were assessed for mortality and growth inhibition 5 days after infestation.

[4] = test system: Aphis craccivora (Black Bean Aphid); assay: Aphis craccivora mixed population, contact/feeding; details: 120 h, test rate 200 ppm, pea seedlings sprayed, 5 days after treatment
Experimental: Pea seedlings infested with mixed aged aphid population were treated with diluted test solutions in a spray chamber. 5 days after treatment, samples were assessed for mortality.

[5] = test system: Myzus persicae (Green Peach Aphid); assay: Myzus persicae feeding activity (sucrose solution, Parafilm); details: 120 h, test rate 12.5 ppm, in sucrose solution, 5 days after infestation
Experimental: Test compounds prepared from 10,000 ppm DMSO stock solutions were applied by pipette into 24-well microtiter plates and mixed with sucrose solution. The plates were closed with a stretched Parafilm. A plastic stencil with 24 holes was placed onto the plate and infested pea seedlings were placed directly on the Parafilm. The infested plate was closed with a gel blotting paper and another plastic stencil and then turned upside down. The samples were assessed for mortality 5 days after infestation.

[6] = test system: Plutella xylostella (Diamond Back Moth); assay: Plutella xylostella feeding/contact activity, 24-well artificial diet; details: 192 h, application rate 200 ppm, 24-well artificial diet, 8 days after infestation, read-out: control in at least one of the two categories (mortality or growth inhibition)
Experimental: 24-well microtiter plates with artificial diet were treated with aqueous test solutions prepared from 10,000 ppm DMSO stock solutions by pipetting. After drying, Plutella eggs were pipetted through a plastic stencil onto a gel blotting paper and the plate was closed with it. The samples were assessed for mortality and growth inhibition in comparison to untreated samples 8 days after infestation.

[7] = test system: Aphis craccivora (Black Bean Aphid); assay: Aphis craccivora mixed population, systemic/feeding; details: 120 h, test rate 12.5 ppm, pea seedlings in test solutions, 5 days
Experimental: Pea seedlings infested with mixed aged aphid population, were put into glass vials with test solutions. 5 days later, samples were assessed for mortality.

[8] = test system: Diabrotica balteata (corn root worm); assay: Diabrotica balteata (corn root worm), sprayed maize sprouts; details: 96 h, application rate 200 ppm, L2 larvae, 4 days after infestation, read-out: control in at least one of the two categories (mortality or growth inhibition)
Experimental: Maize sprouts placed onto an agar layer in 24-well microtiter plates were treated with aqueous test solutions prepared from 10,000 ppm DMSO stock solutions by spraying. After drying, the plates were infested with L2 larvae (6 to 8 per well). The samples were assessed for mortality and growth inhibition in comparison to untreated samples 4 days after infestation.

[9] = test system: Thrips tabaci (Onion thrips); assay: Thrips tabaci feeding/contact activity; details: foliar, 144 h, application rate 200 ppm, sunflower leaf discs, 6 days after infestation, read-out: control in at least one of the two categories (mortality or anti-feeding)
Experimental: (§1) Sunflower leaf discs were placed on agar in 24-well microtiter plates and sprayed with aqueous test solutions prepared from 10,000 ppm DMSO stock solutions. After drying the leaf discs were infested with a thrips population of mixed ages. The samples were assessed for mortality, and anti-feeding 6 days after infestation.

[10] = test system: Nilaparvata lugens (Brown Plant Hopper); assay: Nilaparvata lugens larvicide, feeding/contact; details: 168 h, test rate 200 ppm, N3 nymphs on sprayed rice plants, 7 days after treatment, read-out: control in at least one of the two categories (mortality or growth inhibition)
Experimental: Rice plants were treated with the diluted test solutions in a spray chamber. After drying plants were infested with ˜20 N3 nymphs. 7 days after the treatment samples were assessed for mortality and growth inhibition.

[11] = test system: Spodoptera littoralis (Egyptian Cotton Leaf Worm); assay: Spodoptera littoralis feeding/contact activity; details: foliar, 72 h, application rate 200 ppm, L1 larvae on cotton leaf discs, 3 days after infestation, read-out: control in at least one of the three categories (mortality or growth inhibition or anti-feeding)
Experimental: Cotton leaf discs were placed onto agar in 24-well microtiter plates and sprayed with aqueous test solutions prepared from 10,000 ppm DMSO stock solutions. After drying the leaf discs were infested with five L1 larvae. The samples were assessed for mortality, anti-feeding and growth inhibition 3 days after infestation.

[12] = test system: Frankliniella occidentalis (Western Flower Thrips); assay: Frankliniella occidentalis feeding/contact activity; details: foliar, 168 h, application rate 200 ppm, mixed ages on sunflower leaf discs, 7 days after infestation
Experimental: as §1, with “10,000” for “10,000 ppm”, “Frankliniella” for “thrips”, “mortality 7” for “mortality, and anti-feeding 6”

[13] = test system: Carpocapsa (Cydia) Pomonella (Codling Moth); assay: Carpocapsa (Cydia) pomonella larvicide, feeding/contact; details: 336 h, test rate 50 ppm, L1 larvae on diet cubes, 14 days after infestation, read-out: control in at least one of the two categories (mortality or growth inhibition)
Experimental: Diet cubes coated with paraffin were sprayed with diluted test solutions in an application chamber. After drying off the treated cubes (10 replicates) were infested with 1 L1 larvae. Samples were incubated at 26-27° C. and checked 14 days after infestation for mortality and growth inhibition.

CC(NC(=O)c1cc(C(F)(F)F)cc(C(F)(F)F)c1)c1ncnn1-c1ncccn1 (stereo not drawn) [Compound 4]
≥ 80%: percent control (mortality, anti-feedant effect or growth inhibition) at 12.5 ppm [1] | mortality at 500 ppm [2] | percent control (mortality or growth inhibition) at 200 ppm [3] | mortality at 200 ppm [4] | mortality at 12.5 ppm [5] | percent control (mortality or growth inhibition) at 200 ppm [6] | mortality at 12.5 ppm [7] | percent control (mortality or growth inhibition) at 200 ppm [8] | percent control (mortality, anti-feedant effect or growth inhibition) at 200 ppm [9] | percent control (mortality or growth inhibition) at 200 ppm [10] | percent control (mortality, anti-feedant effect or growth inhibition) at 200 ppm [11] | mortality at 200 ppm [12] | percent control (mortality or growth inhibition) at 50 ppm [13]

CC(c1ncnn1-c1ncccn1)N(C)C(=O)c1cc(C(F)(F)F)cc(C(F)(F)F)c1 (stereo not drawn) [Compound 1]
≥ 80%: percent control (mortality, anti-feedant effect or growth inhibition) at 12.5 ppm [1] | mortality at 500 ppm [2] | percent control (mortality or growth inhibition) at 200 ppm [3] | mortality at 200 ppm [4] | mortality at 12.5 ppm [5] | percent control (mortality or growth inhibition) at 200 ppm [6] | mortality at 12.5 ppm [7] | percent control (mortality or growth inhibition) at 200 ppm [8] | percent control (mortality, anti-feedant effect or growth inhibition) at 200 ppm [9] | percent control (mortality or growth inhibition) at 200 ppm [10] | percent control (mortality, anti-feedant effect or growth inhibition) at 200 ppm [11] | mortality at 200 ppm [12] | percent control (mortality or growth inhibition) at 50 ppm [13]

CC(c1ncnn1-c1ncccn1)N(CC1CC1)C(=O)c1cc(C(F)(F)F)cc(C(F)(F)F)c1 (stereo not drawn) [Compound 3]
≥ 80%: percent control (mortality, anti-feedant effect or growth inhibition) at 12.5 ppm [1] | mortality at 500 ppm [2] | percent control (mortality or growth inhibition) at 200 ppm [3] | mortality at 200 ppm [4] | mortality at 12.5 ppm [5] | percent control (mortality or growth inhibition) at 200 ppm [6] | mortality at 12.5 ppm [7] | percent control (mortality or growth inhibition) at 200 ppm [8] | percent control (mortality, anti-feedant effect or growth inhibition) at 200 ppm [9] | percent control (mortality or growth inhibition) at 200 ppm [10] | percent control (mortality, anti-feedant effect or growth inhibition) at 200 ppm [11] | mortality at 200 ppm [12] | percent control (mortality or growth inhibition) at 50 ppm [13]
